Measurements taken from ChEMBL document CHEMBL2176889, “Design, synthesis, and pharmacological evaluation of monocyclic pyrimidinones as novel inhibitors of PDE5” (J Med Chem, 2012).
Activity calls are given as the source filed them. The rule behind the calls is not given here.

Tests used:
[1] = biological target: High affinity 3',5'-cyclic-AMP phosphodiesterase 7A (Homo sapiens, UniProt Q13946)
Rattus norvegicus = test: Increase in intracavernous pressure/blood pressure in Sprague-Dawley rat model of erection at 10 mg/kg, po measured 30 mins post dose; format: functional, organism-based; set-up: dose 10 mg/kg
[2] = Oral bioavailability in Sprague-Dawley rat at 10 mg/kg by LC-MS/MS method; format: ADME, organism-based; conditions: in vivo
[3] = Inhibition of dog adrenal gland PDE2 by [3H]cGMP based tritium scintillation proximity assay; format: tissue-based, Canis lupus familiaris
[4] = MRT (0 to 10 hrs) in Sprague-Dawley rat at 10 mg/kg, po by LC-MS/MS method; format: ADME, organism-based; set-up: dose 10 mg/kg, route oral; conditions: in vivo
[5] = Tmax in Sprague-Dawley rat at 10 mg/kg, po by LC-MS/MS method; format: ADME, organism-based; set-up: dose 10 mg/kg, route oral; conditions: in vivo
[6] = Clearance in Sprague-Dawley rat at 5 mg/kg, iv by LC-MS/MS method; format: ADME, organism-based; set-up: dose 5 mg/kg, route intravenous; conditions: in vivo
[7] = Half life in Sprague-Dawley rat at 5 mg/kg, iv by LC-MS/MS method; format: ADME, organism-based; set-up: dose 5 mg/kg, route intravenous; conditions: in vivo
[8] = Cmax in Sprague-Dawley rat at 10 mg/kg, po by LC-MS/MS method; format: ADME, organism-based; set-up: dose 10 mg/kg, route oral; conditions: in vivo
[9] = Volume of distribution in Sprague-Dawley rat at 5 mg/kg, iv by LC-MS/MS method; format: ADME, organism-based; set-up: dose 5 mg/kg, route intravenous; conditions: in vivo
[10] = Half life in Sprague-Dawley rat at 10 mg/kg, po by LC-MS/MS method; format: ADME, organism-based; set-up: dose 10 mg/kg, route oral; conditions: in vivo
[11] = AUC (0 to 10 hrs) in Sprague-Dawley rat at 5 mg/kg, iv by LC-MS/MS method; format: ADME, organism-based; set-up: time < 10 hr, dose 5 mg/kg, route intravenous; conditions: plasma
[12] = MRT (0 to 10 hrs) in Sprague-Dawley rat at 5 mg/kg, iv by LC-MS/MS method; format: ADME, organism-based; set-up: dose 5 mg/kg, route intravenous; conditions: in vivo
[13] = AUC (0 to 10 hrs) in Sprague-Dawley rat at 10 mg/kg, po by LC-MS/MS method; format: ADME, organism-based; set-up: time < 10 hr, dose 10 mg/kg, route oral; conditions: plasma

High affinity 3',5'-cyclic-AMP phosphodiesterase 7A, sequence (Q13946 whole entry): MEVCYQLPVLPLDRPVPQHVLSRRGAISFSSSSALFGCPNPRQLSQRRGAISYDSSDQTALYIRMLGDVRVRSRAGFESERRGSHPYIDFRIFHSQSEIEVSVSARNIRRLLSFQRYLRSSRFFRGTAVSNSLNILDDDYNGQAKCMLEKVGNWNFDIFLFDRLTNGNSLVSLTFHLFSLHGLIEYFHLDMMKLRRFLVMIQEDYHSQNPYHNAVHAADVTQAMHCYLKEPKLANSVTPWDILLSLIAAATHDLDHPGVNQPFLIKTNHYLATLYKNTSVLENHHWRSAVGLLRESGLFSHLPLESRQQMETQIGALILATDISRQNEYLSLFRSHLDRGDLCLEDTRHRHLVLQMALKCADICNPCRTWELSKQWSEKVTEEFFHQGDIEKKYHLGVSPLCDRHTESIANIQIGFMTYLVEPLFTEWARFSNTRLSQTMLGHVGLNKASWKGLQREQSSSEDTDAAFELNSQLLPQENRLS

IC50 [1] [µM] | bioavailability [2] [%] | IC50 [3] [µM] | MRT last [4] [h] | Tmax [5] [h] | clearance [6] [mL/min/kg] | half-life [7] [h] | Cmax [8] [ng/mL] | Vd [9] [L/kg] | half-life [10] [h] | AUC(0-t) at 10 h [11] [ng·h/mL] | MRT last [12] [h] | AUC(0-t) at 10 h [13] [ng·h/mL] | Compound | Activity (Rattus norvegicus)
4.69 | 23 | > 10 | – | – | – | – | – | – | – | – | – | – | CCCc1nn(C)c2c(=O)[nH]c(-c3cc(S(=O)(=O)N4CCN(C)CC4)ccc3OCC)nc12 | Active
– | 10 | – | 3.09 | 0.25 | 19.5 | 1.29 | 468 | 2.07 | 3.94 | 4470 | 0.81 | 895 | CCCOc1ccc(S(=O)(=O)N2CCN(C)CC2)cc1-c1nc(CC)c(CC)c(=O)[nH]1 | Active
